In patent publication US20230218707A1, “NOVEL PEPTIDE INHIBITORS OF BETA-LACTAMASE AGAINST ANTIBIOTIC RESISTANCE” (priority 2020, published 2023):
Residues, ends and D or L forms follow the SMILES beside them.

What was measured:
[1] = tested on: Escherichia coli ATCC 35218; type: cell-based; settings: for enhancement of amoxicillin killing of ATCC35218: 32 μg/ml amoxicillin, FIG. 1 / FIG. 2A
Experimental: The activity of peptide inhibitors was assessed in Escherichia coli ATCC 35218 strain, which is a TEM-1 producing control E. coli strain commonly used in testing β-lactamase inhibitor activity, and which is resistant to amoxicillin by expressing TEM-1 β-lactamase. Peptide inhibitors that can inhibit TEM-1 function will lower minimum inhibitory concentration (MIC) of the amoxicillin against the resistant bacteria, which will be used to measure the potency of peptide inhibitors in bacteria. Bacterial susceptibility to amoxicillin and β-lactamase inhibitors were determined by broth microtiter dilution (BMD) according to the Clinical and Laboratory Standards Institute (CLSI) methodology. The tests were done using checkboard method with different amoxicillin concentrations (0-128 μg/ml). For the control group, clavulanic acid concentration was about 4 μg/ml.

MRSA strain (JE2) = experiment: Growth of MRSA strain JE2 with peptide and ceftizoxime; type: cell-based, Staphylococcus aureus; settings: JE2, 8 μg/ml ceftizoxime (FIG. 4)
Experimental: Some of the MRSA strains also developed resistance against cephalosporin, which are improved β-lactams developed to overcome some of the early penicillin resistance. BP100-T61-25's synergy with Ceftizoxime, which is a third generation cephalosporin on a MRSA strain (JE2) that is resistant to cephalosporin, was tested.

ATCC35218 cells = experiment: Confocal microscopy of uptake of fluorescent labeled peptide; type: cell-based, E. coli; settings: 5(6)-FAM label at N-terminus
Experimental: To confirm that the CPP enhanced the E. coli uptake of the peptide, the BP100-T61-25 peptide was labeled with 5(6)-FAM [5-(and-6)-Carboxyfluorescein at the N-terminus and incubated with ATCC35218 cells. […] It is noted that significant enhancement of amoxicillin potency against resistant bacteria can be achieved by linking CPPs to peptide inhibitor.

NRS384 = experiment: Serial passage resistance selection of NRS384; type: cell-based, Staphylococcus aureus
MRSA strain NRS384 = experiment: Growth of MRSA strain NRS384 with peptide and amoxicillin; type: cell-based, Staphylococcus aureus
Experimental: In order to assess the potency of the peptides against MRSA, the peptides were tested on MRSA strain NRS384, which is widely used for studying MRSA infections.

PBP2a = target: T1, PBP2a (Staphylococcus aureus, UniProt P07944); experiment: In vitro binding assay, Bocillin FL binding to PBP2a (SDS-PAGE fluorescence); settings: preliminary data, FIG. 3A
T1 construct: purchased RayBiotech, GA
T1 sequence (P07944 whole entry): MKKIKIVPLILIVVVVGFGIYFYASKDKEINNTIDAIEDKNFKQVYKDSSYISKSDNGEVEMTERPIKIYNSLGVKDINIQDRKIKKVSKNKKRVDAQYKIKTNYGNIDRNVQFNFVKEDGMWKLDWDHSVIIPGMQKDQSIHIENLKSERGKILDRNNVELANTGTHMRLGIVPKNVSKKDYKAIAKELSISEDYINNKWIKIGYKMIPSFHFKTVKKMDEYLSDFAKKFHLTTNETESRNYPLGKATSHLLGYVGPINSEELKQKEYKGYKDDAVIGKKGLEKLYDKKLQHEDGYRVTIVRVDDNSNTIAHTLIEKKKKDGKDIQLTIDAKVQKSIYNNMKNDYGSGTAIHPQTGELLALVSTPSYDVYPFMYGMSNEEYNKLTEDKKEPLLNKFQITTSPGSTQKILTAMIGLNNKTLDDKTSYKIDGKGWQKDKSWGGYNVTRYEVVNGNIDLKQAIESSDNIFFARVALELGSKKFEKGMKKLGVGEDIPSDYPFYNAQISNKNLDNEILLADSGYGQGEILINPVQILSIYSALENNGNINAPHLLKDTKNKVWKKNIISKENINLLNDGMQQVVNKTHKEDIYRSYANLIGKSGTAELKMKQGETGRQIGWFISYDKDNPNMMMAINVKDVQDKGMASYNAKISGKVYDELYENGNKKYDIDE
Excerpt: More peptides were designed to target both PBP2a and β-lactamase which are predicted to enhance amoxicillin killing of MRSA. […] The top 6 best-scored peptides were synthesized. […] In the absence of peptide competitors, Bocillin FL bound to PBP2a and then gave rise to fluorescence signal when the protein was resolved on an SDS-PAGE gel.

TEM-1 = TEM-1 (Escherichia coli, UniProt P62593); settings: literature peptide, Huang et al. 2003; cited from earlier work
TEM-1, sequence (P62593 24-286 limits assumed): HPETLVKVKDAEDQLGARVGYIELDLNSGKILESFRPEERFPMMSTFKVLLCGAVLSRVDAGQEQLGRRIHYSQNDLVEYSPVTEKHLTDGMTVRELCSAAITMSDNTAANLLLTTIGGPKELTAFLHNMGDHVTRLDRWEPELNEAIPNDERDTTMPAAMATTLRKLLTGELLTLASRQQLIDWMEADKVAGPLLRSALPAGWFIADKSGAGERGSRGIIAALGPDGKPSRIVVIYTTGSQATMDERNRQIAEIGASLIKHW

With `CC[C@H](C)[C@H](NC(=O)[C@H](CCCCN)NC(=O)[C@H](CCCCN)NC(=O)[C@H](Cc1ccccc1)NC(=O)[C@H](CC(C)C)NC(=O)[C@H](CCCCN)NC(=O)[C@@H](N)CCCCN)C(=O)N[C@@H](CC(C)C)C(=O)N[C@@H](CCCCN)C(=O)N[C@@H](Cc1ccc(O)cc1)C(=O)N[C@@H](CC(C)C)C(=O)N[C@@H](CCCCN)C(=O)N[C@H](C(=O)N[C@@H](Cc1ccc(O)cc1)C(=O)N[C@@H](CC(C)C)C(=O)N[C@@H](C)C(=O)N[C@@H](CCC(N)=O)C(=O)N[C@@H](C)C(=O)N[C@@H](C)C(=O)N[C@@H](C)C(=O)N[C@H](C(=O)NCC(=O)O)[C@@H](C)O)[C@@H](C)O` [BP100-T61-25] (H-KKLFKKILKYLKTYLAQAAATG-OH; N-terminus and C-terminus assumed) the “enhancement of amoxicillin killing of ATCC35218” value (“enhancement … of ATCC35218” below) [1] was “Marked enhancement of amoxicillin (32 μg/ml) killing of bacteria”, the “peptide dose close to the MIC” value ([1]; ATCC 35218) was roughly 8 µg/mL and the “peptide concentration with strong inhibition of bacterial growth” value ([1]; ATCC35218, with 32 μg/ml amoxicillin) was 8 to 16 µg/mL. For the same compound, the “peptide concentration significantly inhibiting bacterial growth” value ([1]; ATCC35218, without amoxicillin) was 16 µg/mL, the “peptide concentration significantly enhancing ceftizoxime's killing of JE2” value (MRSA strain (JE2)) was 8 µg/mL and the “peptide internalization into E. coli cells” value (ATCC35218 cells) was “peptide internalization into E. coli cells was observed”. For the same compound, the “peptide concentration sufficient to inhibit bacterial growth after serial passage” value (NRS384; NRS384 passages 12-15, with 32 μg/ml amoxicillin) was 16 µg/mL and the “peptide concentration enhancing amoxicillin killing of MRSA” value (MRSA strain NRS384; NRS384, amoxicillin 32 μg/ml, FIG. 3C) was 16 µg/mL.

In the case of `CC(C)C[C@H](NC(=O)[C@H](Cc1ccc(O)cc1)NC(=O)[C@@H](NC(=O)[C@@H](N)CCCCN)[C@@H](C)O)C(=O)N[C@@H](C)C(=O)N[C@@H](CCC(N)=O)C(=O)N[C@@H](C)C(=O)N[C@@H](C)C(=O)N[C@@H](C)C(=O)N[C@H](C(=O)NCC(=O)O)[C@@H](C)O` [Peptide T61-25], the “inhibition of Bocillin FL binding to PBP2a” value (“inhibition … to PBP2a” below) (PBP2a) is reported as “inhibitory effect”.

In the case of `CC(C)C[C@H](NC(=O)[C@H](C)NC(=O)[C@H](CCCNC(=N)N)NC(=O)[C@@H](NC(=O)[C@@H](NC(=O)[C@H](Cc1ccccc1)NC(=O)[C@@H](NC(=O)[C@@H](N)CCCCN)[C@@H](C)O)C(C)C)C(C)C)C(=O)N[C@@H](C)C(=O)N[C@@H](CO)C(=O)O` [Peptide T63-07], the “inhibition … to PBP2a” value (PBP2a) is reported as “inhibitory effect”.

With `C[C@H](NC(=O)[C@H](Cc1ccccc1)NC(=O)[C@H](CC(=O)O)NC(=O)CNC(=O)[C@H](CO)NC(=O)CNC(=O)CN)C(=O)N[C@@H](CCCNC(=N)N)C(=O)N[C@@H](CO)C(=O)N[C@@H](CO)C(=O)N[C@@H](Cc1ccc(O)cc1)C(=O)O` [Peptide T66-12] the “inhibition … to PBP2a” value (PBP2a) was “inhibitory effect”.

Compound `CC1(C)S[C@@H]2[C@H](NC(=O)[C@H](N)c3ccc(O)cc3)C(=O)N2[C@H]1C(=O)O` [amoxicillin, reference compound] has an MIC (MRSA strain NRS384; Staphylococcus aureus) greater than 256 µg/mL.

Compound `O=C(O)c1cn(C2CC2)c2cc(N3CCNCC3)c(F)cc2c1=O` [ciprofloxacin, reference compound] has an MIC (NRS384; Staphylococcus aureus, NRS384, read-out: bacterial MIC to ciprofloxacin after serial passage) greater than 256 µg/mL.

In the case of “CFFKDELKTYLAQAAATG [Peptide T63-2, cell wall-permeating peptide attached to peptide T61-25]”, the “enhancement … of ATCC35218” value [1] is reported as “moderate effect at enhancing amoxicillin potency”.

In the case of “KFFKFFKFFKKTYLAQAAATG [Peptide T63-1, cell wall-permeating peptide attached to peptide T61-25]”, the “enhancement … of ATCC35218” value [1] is reported as “Significant enhancement of amoxicillin killing of bacteria” and the “enhancement of amoxicillin potency compared with clavulanate” value ([1]; ATCC35218, FIG. 1) is reported as “enhanced amoxicillin potency significantly more than clavulanate”.

In the case of “KTFVVRALASCKFFKFFKFF [Peptide T63-07-CPP, T63-07 conjugated with CPP]”, the “peptide concentration significantly enhancing amoxicillin inhibition of MRSA growth” value (MRSA strain NRS384; NRS384, amoxicillin 32 and 64 μg/ml, FIG. 3B) is reported as 32 µg/mL.

For RRGHYY-NH2, the Ki (TEM-1) is given as 136 µM.
